In PubChem BioAssay (NCI):
Where “and” joins values, the source holds several entries; their conditions need not be identical. Identical values can stand only once.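 Grown in 96-well plates, cells were treated for 48 hours with each compound at five concentrations. Insufficient inhibition: endpoint recorded as highest concentration tested. Abbreviation: GI50, concentration required for 50% inhibition of growth. Definition used: TGI = concentration required for complete inhibition of growth.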

Tests used:
Test in all cases: growth of human tumour cells (NCI), 48 h
SR leukemia = system: SR leukemia
NCI-H522 lung = system: NCI-H522 lung
RPMI-8226 leukemia = system: RPMI-8226 leukemia
M19-MEL melanoma = system: M19-MEL melanoma
SW-620 colon = system: SW-620 colon
IGROV1 ovarian = system: IGROV1 ovarian
HT29 colon = system: HT29 colon
KM12 colon = system: KM12 colon
SNB-75 CNS = system: SNB-75 CNS
MALME-3M melanoma = system: MALME-3M melanoma
OVCAR-5 ovarian = system: OVCAR-5 ovarian
NCI-H23 lung = system: NCI-H23 lung
MOLT-4 leukemia = system: MOLT-4 leukemia
LOX IMVI melanoma = system: LOX IMVI melanoma
DMS 273 small cell lung = system: DMS 273 small cell lung
KM20L2 colon = system: KM20L2 colon
DLD-1 colon = system: DLD-1 colon
UO-31 renal = system: UO-31 renal
786-0 renal = system: 786-0 renal
SF-295 CNS = system: SF-295 CNS
HCT-116 colon = system: HCT-116 colon
A549 NSCLC = system: A549 NSCLC
SK-MEL-28 melanoma = system: SK-MEL-28 melanoma
HL-60(TB) leukemia = system: HL-60(TB) leukemia
HCT-15 colon = system: HCT-15 colon
SNB-19 CNS = system: SNB-19 CNS
SK-OV-3 ovarian = system: SK-OV-3 ovarian
LXFL 529 NSCLC = system: LXFL 529 NSCLC
TK-10 renal = system: TK-10 renal
COLO 205 colon = system: COLO 205 colon
SN12C renal = system: SN12C renal
A498 renal = system: A498 renal
K-562 leukemia = system: K-562 leukemia
SF-539 CNS = system: SF-539 CNS
DMS 114 small cell lung = system: DMS 114 small cell lung
UACC-62 melanoma = system: UACC-62 melanoma
OVCAR-4 ovarian = system: OVCAR-4 ovarian
RXF 393 renal = system: RXF 393 renal
OVCAR-8 ovarian = system: OVCAR-8 ovarian
HOP-92 NSCLC = system: HOP-92 NSCLC
CAKI-1 renal = system: CAKI-1 renal
SF-268 CNS = system: SF-268 CNS
UACC-257 melanoma = system: UACC-257 melanoma
SK-MEL-5 melanoma = system: SK-MEL-5 melanoma
NCI-H226 lung = system: NCI-H226 lung
M14 melanoma = system: M14 melanoma
U251 CNS = system: U251 CNS
EKVX NSCLC = system: EKVX NSCLC
SK-MEL-2 melanoma = system: SK-MEL-2 melanoma
XF 498 CNS = system: XF 498 CNS
HCC-2998 colon = system: HCC-2998 colon
HOP-62 NSCLC = system: HOP-62 NSCLC
SNB-78 CNS = system: SNB-78 CNS
CCRF-CEM leukemia = system: CCRF-CEM leukemia
ACHN renal = system: ACHN renal
OVCAR-3 ovarian = system: OVCAR-3 ovarian
NCI-H460 lung = system: NCI-H460 lung
HOP-18 NSCLC = system: HOP-18 NSCLC

C/C(=N\O)C(CN(C)C)C(c1ccccc1)c1c(O)c2ccccc2oc1=O (configuration not stated)
TGI (SR leukemia): > 100 µM
TGI (NCI-H522 lung): > 100 µM
TGI (RPMI-8226 leukemia): > 100 µM
TGI (M19-MEL melanoma): > 100 µM
TGI (SW-620 colon): > 100 µM
TGI (IGROV1 ovarian): > 100 µM
TGI (HT29 colon): > 100 µM
TGI (KM12 colon): > 100 µM
TGI (SNB-75 CNS): > 100 µM
TGI (MALME-3M melanoma): > 100 µM
TGI (OVCAR-5 ovarian): > 100 µM
TGI (NCI-H23 lung): > 100 µM
TGI (MOLT-4 leukemia): > 100 µM
TGI (LOX IMVI melanoma): > 100 µM
TGI (DMS 273 small cell lung): > 100 µM
TGI (KM20L2 colon): > 100 µM
TGI (DLD-1 colon): > 100 µM
TGI (UO-31 renal): > 100 µM
TGI (786-0 renal): > 100 µM
TGI (SF-295 CNS): > 100 µM
TGI (HCT-116 colon): > 100 µM
TGI (A549 NSCLC): > 100 µM
TGI (SK-MEL-28 melanoma): > 100 µM
TGI (HL-60(TB) leukemia): > 100 µM
TGI (HCT-15 colon): > 100 µM
TGI (SNB-19 CNS): > 100 µM
TGI (SK-OV-3 ovarian): > 100 µM
TGI (LXFL 529 NSCLC): > 100 µM
TGI (TK-10 renal): > 100 µM
TGI (COLO 205 colon): > 100 µM
TGI (SN12C renal): > 100 µM
TGI (A498 renal): > 100 µM
TGI (K-562 leukemia): > 100 µM
TGI (SF-539 CNS): > 100 µM
TGI (DMS 114 small cell lung): > 100 µM
TGI (UACC-62 melanoma): > 100 µM
TGI (OVCAR-4 ovarian): > 100 µM
TGI (RXF 393 renal): > 100 µM
TGI (OVCAR-8 ovarian): > 100 µM
TGI (HOP-92 NSCLC): > 100 µM
TGI (CAKI-1 renal): > 100 µM
TGI (SF-268 CNS): > 100 µM
TGI (UACC-257 melanoma): > 100 µM
TGI (SK-MEL-5 melanoma): > 100 µM
TGI (NCI-H226 lung): > 100 µM
TGI (M14 melanoma): > 100 µM
TGI (U251 CNS): > 100 µM
TGI (EKVX NSCLC): > 100 µM
TGI (SK-MEL-2 melanoma): > 100 µM
TGI (XF 498 CNS): > 100 µM
TGI (HCC-2998 colon): > 100 µM
TGI (HOP-62 NSCLC): > 100 µM
TGI (SNB-78 CNS): > 100 µM
TGI (CCRF-CEM leukemia): > 100 µM

NCC(=O)OCN1C(=O)C2C3C=CC(C2C1=O)C1C2C(=O)N(COC(=O)CN)C(=O)C2C31 (configuration not stated)
TGI (NCI-H522 lung): 25.9 µM
TGI (RPMI-8226 leukemia): 72.5 µM and 59.7 µM
TGI (ACHN renal): 67.6 µM and 62.1 µM
TGI (M19-MEL melanoma): 45.1 µM and 37.9 µM
TGI (SW-620 colon): 44.7 µM and 54.2 µM
TGI (IGROV1 ovarian): > 100 µM
TGI (HT29 colon): > 100 µM
TGI (KM12 colon): 48.4 µM and 42.2 µM
TGI (SNB-75 CNS): 62.6 µM and > 100 µM
GI50 (OVCAR-5 ovarian): 42.1 µM and 90 µM
TGI (OVCAR-5 ovarian): > 100 µM
TGI (NCI-H23 lung): 49.1 µM and 84.7 µM
TGI (MOLT-4 leukemia): 69.8 µM and 42.2 µM
TGI (LOX IMVI melanoma): 37.9 µM
TGI (DMS 273 small cell lung): 33.6 µM and 37.3 µM
TGI (KM20L2 colon): 52.9 µM and 81.9 µM
TGI (DLD-1 colon): 54.2 µM and 60.8 µM
TGI (UO-31 renal): 97.7 µM and > 100 µM
TGI (786-0 renal): 40.7 µM and 36.8 µM
TGI (SF-295 CNS): > 100 µM
TGI (HCT-116 colon): 33.6 µM and 30.7 µM
TGI (A549 NSCLC): 63.7 µM and 60.6 µM
TGI (SK-MEL-28 melanoma): 35.3 µM and 40.8 µM
TGI (HL-60(TB) leukemia): 28.5 µM and 37.4 µM
TGI (HCT-15 colon): 36.9 µM and 34.8 µM
TGI (SNB-19 CNS): > 100 µM
TGI (SK-OV-3 ovarian): > 100 µM
TGI (LXFL 529 NSCLC): 42.1 µM and > 100 µM
TGI (TK-10 renal): > 100 µM
TGI (COLO 205 colon): 36.4 µM and 32.2 µM
TGI (SN12C renal): 48.4 µM and 50.7 µM
TGI (A498 renal): > 100 µM
TGI (K-562 leukemia): 60.9 µM and > 100 µM
TGI (SF-539 CNS): 68.9 µM and 38.2 µM
TGI (OVCAR-3 ovarian): 82.1 µM and 93.4 µM
TGI (NCI-H460 lung): 35.8 µM and 34.3 µM
TGI (DMS 114 small cell lung): 39 µM and 36.8 µM
TGI (UACC-62 melanoma): 50.5 µM and 56 µM
TGI (OVCAR-4 ovarian): 39.1 µM and 55.4 µM
TGI (RXF 393 renal): 37.9 µM and 42.3 µM
TGI (OVCAR-8 ovarian): 47.4 µM and 39 µM
TGI (HOP-92 NSCLC): > 100 µM
TGI (CAKI-1 renal): > 100 µM
TGI (SF-268 CNS): 41.1 µM and 48.6 µM
TGI (UACC-257 melanoma): > 100 µM and 77.6 µM
TGI (SK-MEL-5 melanoma): 51.7 µM and 34 µM
TGI (NCI-H226 lung): > 100 µM
TGI (M14 melanoma): 35.3 µM and 33.9 µM
TGI (U251 CNS): 45 µM and 38.7 µM
TGI (EKVX NSCLC): > 100 µM
TGI (SK-MEL-2 melanoma): 38.6 µM and 41.2 µM
TGI (XF 498 CNS): 54.7 µM and 64.1 µM
TGI (HOP-18 NSCLC): 54.4 µM and 73.7 µM
GI50 (HCC-2998 colon): 31.2 µM and 69.9 µM
TGI (HCC-2998 colon): 94.8 µM and > 100 µM
TGI (HOP-62 NSCLC): > 100 µM
TGI (SNB-78 CNS): > 100 µM
TGI (CCRF-CEM leukemia): 52.6 µM and 49.8 µM
